# Measurements taken from patent US20260250325A1, “Antiviral Polypeptide Membrane Fusion Inhibitor, and Preparation Method and Application Thereof” (priority 2025, published 2026).
# Where a SMILES comes first, the peptide text is derived from it. The star is where a group is joined. Succinyl(4-O-cholesteryl) = CC(C)CCC[C@@H](C)[C@H]1CC[C@H]2[C@@H]3CC=C4C[C@@H](OC(=O)CCC(=O)*)CC[C@]4(C)[C@H]3CC[C@]12C; X1 = CC(C)CCCC(C)C1CCC2C3CC=C4CC(OC(=O)CCC(=O)*)CCC4(C)C3CCC12C
# Tests used:
# RSV A long virus strain = assay type: cell-based; conditions: RSV A long virus strain, HEp-2 cells, plaque reduction, 1 day; read-out: IC50
# Procedure, shortened: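 Plaque reduction in HEp-2 cells: virus (100 PFU/well) and serially diluted compound (8 concentrations) mixed 1 h, adsorbed 2 h, then overlaid with 0.8% CMC medium plus compound for 1 day at 37 °C. Spots counted after anti-RSV immunostaining; IC50 from normalized inhibition, CC50 from viability data.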
# [1] = Cytotoxicity test in HEp-2 cells (CCK8 cell viability); assay type: cell-based; conditions: human; HEp-2 cells, CCK8, 1 day; read-out: CC50
# Procedure, shortened: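 Compound dilutions (final DMSO 0.5%) were applied for 1 day to HEp-2 cells plated at 30,000 per well the day before. CCK8 signal gave survival relative to cell and medium controls, and a four-parameter log(inhibitor)-response fit yielded CC50.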
Structure (SMILES),IC50 (RSV A long virus strain),CC50 at 1 day [1]
CC[C@H](C)[C@H](NC(=O)[C@H](CCCCN)NC(=O)[C@H](CCCCN)NC(=O)[C@H](CC(C)C)NC(=O)[C@H](CO)NC(=O)[C@H](CCC(=O)O)NC(=O)[C@H](CCC(=O)O)NC(=O)[C@@H](NC(=O)[C@H](CCCCN)NC(=O)[C@H](CCCCN)NC(=O)[C@H](CC(N)=O)NC(=O)[C@@H](NC(=O)[C@H](CCC(=O)O)NC(=O)[C@H](CCC(=O)O)NC(=O)[C@@H](NC(=O)[C@H](CCCCN)NC(=O)[C@H](CCCCN)NC(=O)[C@H](CC(=O)O)NC(=O)[C@H](Cc1ccccc1)NC(=O)[C@H](CCC(=O)O)NC(=O)[C@H](CC(=O)O)NC(=O)[C@H](Cc1c[nH]c2ccccc12)NC(C)=O)[C@@H](C)CC)C(C)C)[C@@H](C)CC)C(=O)N[C@@H](CCC(=O)O)C(=O)N[C@@H](CCC(=O)O)C(=O)N[C@@H](CO)C(=O)N[C@@H](CC(=O)O)C(=O)N[C@@H](CCCCN)C(=O)N[C@@H](CCCCN)C(=O)N[C@@H](CC(C)C)C(=O)N[C@@H](CCC(=O)O)C(=O)N[C@@H](C)C(=O)N[C@@H](C)C(=O)N[C@@H](C)C(=O)N[C@@H](CCCCN)C(=O)N[C@@H](CCCCNC(=O)CCC(=O)O[C@H]1CC[C@@]2(C)C(=CC[C@H]3[C@@H]4CC[C@H]([C@H](C)CCCC(C)C)[C@@]4(C)CC[C@@H]32)C1)C(N)=O [Compound 13] (Ac-WDEFDKKIEEVNKKIEESLKKIEESDKKLEAAAKK(Succinyl(4-O-cholesteryl))-NH2),0.013 µM,30.7 µM
CC[C@H](C)[C@H](NC(=O)[C@H](CCCCN)NC(=O)[C@H](CCCCN)NC(=O)[C@H](CC(C)C)NC(=O)[C@H](CO)NC(=O)[C@H](CCC(=O)O)NC(=O)[C@H](CCC(=O)O)NC(=O)[C@@H](NC(=O)[C@H](CCCCN)NC(=O)[C@H](CCCCN)NC(=O)[C@H](CC(N)=O)NC(=O)[C@@H](NC(=O)[C@H](CCC(=O)O)NC(=O)[C@H](CCC(=O)O)NC(=O)[C@@H](NC(=O)[C@H](CCCCN)NC(=O)[C@H](CCCCN)NC(=O)[C@H](CCCCN)NC(=O)[C@H](CC(=O)O)NC(=O)[C@H](Cc1ccccc1)NC(=O)[C@H](CCC(=O)O)NC(=O)[C@H](CC(=O)O)NC(C)=O)[C@@H](C)CC)C(C)C)[C@@H](C)CC)C(=O)N[C@@H](CCC(=O)O)C(=O)N[C@@H](CCC(=O)O)C(=O)N[C@@H](CO)C(=O)N[C@@H](CC(=O)O)C(=O)N[C@@H](CCCCN)C(=O)N[C@@H](CCCCN)C(=O)N[C@@H](CC(C)C)C(=O)N[C@@H](CCC(=O)O)C(=O)N[C@@H](CCC(=O)O)C(=O)N[C@H](C(=O)NCC(=O)N[C@@H](CO)C(=O)NCC(=O)N[C@@H](CO)C(=O)NCC(=O)N[C@@H](CCCCNC(=O)CCC(=O)O[C@H]1CC[C@@]2(C)C(=CC[C@H]3[C@@H]4CC[C@H]([C@H](C)CCCC(C)C)[C@@]4(C)CC[C@@H]32)C1)C(N)=O)C(C)C [Compound 15] (Ac-DEFDKKKIEEVNKKIEESLKKIEESDKKLEEVGSGSGK(Succinyl(4-O-cholesteryl))-NH2),0.0104 µM,8.9 µM
CC[C@H](C)[C@H](NC(=O)[C@H](CCCCN)NC(=O)[C@H](CCCCN)NC(=O)[C@H](CC(C)C)NC(=O)[C@H](CO)NC(=O)[C@H](CCC(=O)O)NC(=O)[C@H](CCC(=O)O)NC(=O)[C@@H](NC(=O)[C@H](CCCCN)NC(=O)[C@H](CCCCN)NC(=O)[C@H](CC(N)=O)NC(=O)[C@@H](NC(=O)[C@H](CCC(=O)O)NC(=O)[C@H](CCC(=O)O)NC(=O)[C@@H](NC(=O)[C@H](CCCCN)NC(=O)[C@H](CCCCN)NC(=O)[C@H](CC(=O)O)NC(=O)[C@H](Cc1ccccc1)NC(=O)[C@H](CCC(=O)O)NC(=O)[C@H](CC(=O)O)NC(=O)[C@H](CO)NC(C)=O)[C@@H](C)CC)C(C)C)[C@@H](C)CC)C(=O)N[C@@H](CCC(=O)O)C(=O)N[C@@H](CCC(=O)O)C(=O)N[C@@H](CO)C(=O)N[C@@H](CC(=O)O)C(=O)N[C@@H](CCCCN)C(=O)N[C@@H](CCCCN)C(=O)N[C@@H](CC(C)C)C(=O)N[C@@H](CCC(=O)O)C(=O)N[C@@H](C)C(=O)N[C@@H](C)C(=O)N[C@@H](C)C(=O)N[C@@H](CCCCN)C(=O)N[C@@H](CCCCNC(=O)CCC(=O)O[C@H]1CC[C@@]2(C)C(=CC[C@H]3[C@@H]4CC[C@H]([C@H](C)CCCC(C)C)[C@@]4(C)CC[C@@H]32)C1)C(N)=O [Compound 16] (Ac-SDEFDKKIEEVNKKIEESLKKIEESDKKLEAAAKK(Succinyl(4-O-cholesteryl))-NH2),0.0103 µM,17.1 µM
CC[C@H](C)[C@H](NC(=O)[C@H](CCCCN)NC(=O)[C@H](CCCCN)NC(=O)[C@H](CC(C)C)NC(=O)[C@H](CO)NC(=O)[C@H](CCC(=O)O)NC(=O)[C@H](CCC(=O)O)NC(=O)[C@@H](NC(=O)[C@H](CCCCN)NC(=O)[C@H](CCCCN)NC(=O)[C@H](CC(N)=O)NC(=O)[C@@H](NC(=O)[C@H](CCC(=O)O)NC(=O)[C@H](CCC(=O)O)NC(=O)[C@@H](NC(=O)[C@H](CCCCN)NC(=O)[C@H](CCCCN)NC(=O)[C@H](CC(=O)O)NC(=O)[C@H](Cc1ccccc1)NC(=O)[C@H](CCC(=O)O)NC(=O)[C@H](CC(=O)O)NC(=O)[C@H](CO)NC(C)=O)[C@@H](C)CC)C(C)C)[C@@H](C)CC)C(=O)N[C@@H](CCC(=O)O)C(=O)N[C@@H](CCC(=O)O)C(=O)N[C@@H](CO)C(=O)N[C@@H](CC(=O)O)C(=O)N[C@@H](CCCCN)C(=O)N[C@@H](CCCCN)C(=O)N[C@@H](CC(C)C)C(=O)NCC(=O)N[C@@H](CO)C(=O)NCC(=O)N[C@@H](CO)C(=O)NCC(=O)N[C@@H](CCCCNC(=O)CCC(=O)O[C@H]1CC[C@@]2(C)C(=CC[C@H]3[C@@H]4CC[C@H]([C@H](C)CCCC(C)C)[C@@]4(C)CC[C@@H]32)C1)C(N)=O [Compound 20] (Ac-SDEFDKKIEEVNKKIEESLKKIEESDKKLGSGSGK(Succinyl(4-O-cholesteryl))-NH2),0.0198 µM,29 µM
CC[C@H](C)[C@H](NC(=O)[C@H](CCCCN)NC(=O)[C@H](CCCCN)NC(=O)[C@H](CC(C)C)NC(=O)[C@H](CO)NC(=O)[C@H](CCC(=O)O)NC(=O)[C@H](CCC(=O)O)NC(=O)[C@@H](NC(=O)[C@H](CCCCN)NC(=O)[C@H](CCCCN)NC(=O)[C@H](CC(N)=O)NC(=O)[C@@H](NC(=O)[C@H](CCC(=O)O)NC(=O)[C@H](CCC(=O)O)NC(=O)[C@@H](NC(=O)[C@H](CCCCN)NC(=O)[C@H](CCCCN)NC(=O)[C@H](CC(=O)O)NC(=O)[C@H](Cc1ccccc1)NC(=O)[C@H](CCC(=O)O)NC(=O)[C@H](CC(=O)O)NC(C)=O)[C@@H](C)CC)C(C)C)[C@@H](C)CC)C(=O)N[C@@H](CCC(=O)O)C(=O)N[C@@H](CCC(=O)O)C(=O)N[C@@H](CO)C(=O)N[C@@H](CC(=O)O)C(=O)N[C@@H](CCCCN)C(=O)N[C@@H](CCCCN)C(=O)N[C@@H](CC(C)C)C(=O)N[C@@H](CCC(=O)O)C(=O)N[C@@H](CCC(=O)O)C(=O)N[C@H](C(=O)N[C@@H](CCC(=O)O)C(=O)N[C@@H](C)C(=O)N[C@@H](C)C(=O)N[C@@H](C)C(=O)N[C@@H](CCCCN)C(=O)N[C@@H](CCCCNC(=O)CCC(=O)OC1CCC2(C)C(=CCC3C2CCC2(C)C(C(C)CCCC(C)C)CCC32)C1)C(N)=O)C(C)C (some centres unmarked) [Compound 21] (Ac-DEFDKKIEEVNKKIEESLKKIEESDKKLEEVEAAAKK(X1)-NH2),0.0146 µM,18.3 µM
CC[C@H](C)[C@H](NC(=O)[C@H](CCCCN)NC(=O)[C@H](CCC(=O)O)NC(=O)[C@H](CC(C)C)NC(=O)[C@H](CO)NC(=O)[C@H](CCC(N)=O)NC(=O)[C@H](CC(N)=O)NC(=O)[C@@H](NC(=O)[C@H](CCCCN)NC(=O)[C@H](CCC(=O)O)NC(=O)[C@H](CC(N)=O)NC(=O)[C@@H](NC(=O)[C@H](CCC(N)=O)NC(=O)[C@H](CO)NC(=O)[C@H](C)NC(=O)[C@H](CC(=O)O)NC(=O)[C@H](Cc1ccccc1)NC(=O)[C@@H](NC(=O)[C@H](CC(C)C)NC(=O)[C@H](CCC(=O)O)NC(=O)[C@H](CC(=O)O)NC(=O)[C@H](Cc1ccc(O)cc1)NC(C)=O)C(C)C)C(C)C)[C@@H](C)CC)C(=O)N[C@@H](CCCNC(=N)N)C(=O)N[C@@H](CCCCN)C(=O)N[C@@H](CO)C(=O)N[C@@H](CC(=O)O)C(=O)N[C@@H](CCC(=O)O)C(=O)N[C@@H](CC(C)C)C(=O)N[C@@H](CC(C)C)C(=O)N[C@@H](Cc1c[nH]cn1)C(=O)N[C@@H](CC(N)=O)C(=O)N[C@H](C(=O)NCC(=O)N[C@@H](CO)C(=O)NCC(=O)N[C@@H](CO)C(=O)NCC(=O)N[C@@H](CCCCNC(=O)CCC(=O)O[C@H]1CC[C@@]2(C)C(=CC[C@H]3[C@@H]4CC[C@H]([C@H](C)CCCC(C)C)[C@@]4(C)CC[C@@H]32)C1)C(N)=O)C(C)C [Compound 25] (Ac-YDELVFDASQVNEKINQSLEKIRKSDELLHNVGSGSGK(Succinyl(4-O-cholesteryl))-NH2),0.0287 µM,7.5 µM
CC[C@H](C)[C@H](NC(=O)[C@H](CO)NC(=O)[C@H](C)NC(=O)[C@H](CC(=O)O)NC(=O)[C@H](Cc1ccccc1)NC(=O)[C@H](CCC(=O)O)NC(=O)[C@H](CC(=O)O)NC(C)=O)C(=O)N[C@@H](CO)C(=O)N[C@@H](CCC(N)=O)C(=O)N[C@H](C(=O)N[C@@H](CC(N)=O)C(=O)N[C@@H](CCC(=O)O)C(=O)N[C@@H](CCCCN)C(=O)N[C@H](C(=O)N[C@@H](CC(N)=O)C(=O)N[C@@H](CCC(N)=O)C(=O)N[C@@H](CO)C(=O)N[C@@H](CC(C)C)C(=O)N[C@@H](CCC(=O)O)C(=O)N[C@@H](CCC(=O)O)C(=O)N[C@H](C(=O)N[C@@H](CCCNC(=N)N)C(=O)N[C@@H](CCCCN)C(=O)N[C@@H](CO)C(=O)N[C@@H](CC(=O)O)C(=O)N[C@@H](CCC(=O)O)C(=O)N[C@@H](CC(C)C)C(=O)N[C@@H](CC(C)C)C(=O)N[C@@H](Cc1c[nH]cn1)C(=O)N[C@@H](CC(N)=O)C(=O)N[C@@H](CCC(=O)O)C(=O)N[C@@H](C)C(=O)N[C@@H](C)C(=O)N[C@@H](C)C(=O)N[C@@H](CCCCN)C(=O)N[C@@H](CCCCNC(=O)CCC(=O)O[C@H]1CC[C@@]2(C)C(=CC[C@H]3[C@@H]4CC[C@H]([C@H](C)CCCC(C)C)[C@@]4(C)CC[C@@H]32)C1)C(N)=O)[C@@H](C)CC)[C@@H](C)CC)C(C)C [Compound 28] (Ac-DEFDASISQVNEKINQSLEEIRKSDELLHNEAAAKK(Succinyl(4-O-cholesteryl))-NH2),0.0124 µM,8.8 µM
